The record followed here is patent publication US12534501B2, “Targeting deregulated Wnt signaling in cancer using stabilized alpha-helices of BCL-9” (Dana-Farber Cancer Institute, Inc., priority 2011, dated 2026).

Numbered stars: 1 amine (or outer) side, 2 acyl side, 3 side chain; on linkers, the order of the positions; unused ones are H or OH. Bridge positions count the residues as written; N and C are the ends. Square brackets hold non-standard residues; d marks the D form. Peptide text beside a SMILES is read from it. ξ: configuration not given here. ξαMeNle(6-ylidene) = CC(CCCC=[*:3])(N[*:1])C(=O)[*:2]; Nle = CCCC[C@H](N)C(=O)O

For assay [1], the system named is Colo320 cells. Put plainly: Cell viability, CellTiter-Glo. The class given is cell-based. The following applies: 72 h, 5 μM. The procedure: (§1) Cell proliferation assays were performed as described (Sukhdeo, K. et al. Proc Natl Acad Sci USA 104, 7516-21 (2007)). Cell viability was measured using the CellTiter-Glo assay (Promega) according to the manufacturer's instructions. Apoptosis was evaluated by activated caspase-3 and PARP western blotting. See results in FIG. 3A-FIG. 3F, FIG. 13, and FIG. 20.

Assay [2] has as its system MM1S cells. Put plainly: Cell viability, CellTiter-Glo. It counts as cell-based. The following applies: 72 h, 5 μM. The procedure:
as §1

The test system of assay [3] is Wnt target genes in DLD1 colon cancer cell line. Put plainly: Affymetrix gene expression profiling / GSEA and qRT-PCR validation. It counts as cell-based. The method, then:
RNA from SAH-BCL9B and vehicle (0.1% DMSO)-treated cells were run on an Affymetrix U133A 2.0 array chip as described (Mollering et al, Nature 462, 182-8 (2009). Statistical analyses were performed in R (http://www.r-project.org). The array data were normalized with rma method (Bolstad, B. M., et al. Bioinformatics 19, 185-93 (2003)) as implemented in the Affy package (http://www.bioconductor.org/packages/2.6/bioc/html/affy.html) and differential expression calculated with empirical Bayes shrinkage of the standard errors toward a common value with LIMMA (http://www.bioconductor.org/packages/2.6/bioc/html/limma.html) (McCarthy, D. J. & Smyth, G. K. Bioinformatics 25, 765-71 (2009); Smyth, G. K. Stat Appl Genet Mol Biol 3, Article3 (2004)). Gene set enrichment analysis was performed using GSEA software (version 2.06) and mSigDB (version 2.5) (Subramanian, A. et al. Proc Natl Acad Sci USA 102, 15545-50 (2005)).
To further investigate the specificity of SAH-BCL9B in blocking Wnt transcriptional activity, comparative genome-wide expression analyses of Wnt target genes in the DLD1 colon cancer cell line, for which a Wnt transcription pathway signature has been described (L. G. Van der Flier et al., Gastroenterology 132, 628 (2007)), was performed. RNA from triplicate SAH-BCL9B- and vehicle-treated DLD1 samples (10 μM each for 12 hours) was isolated for gene expression profiling analyses. Affymetrix Human U133 Plus 2.0 arrays were processed using the function of the affy Bioconductor package (URL http://www.R-project.org.). Gene sets were compiled from Van der Flier et al. and gene set enrichment and statistical analyses performed using GSEA software (http://www.broad.mit.edu/GSEA) and a two-tailed t-test, respectively. Microarray data has been deposited in the Gene Expression Omnibus (http://www.ncbi.nlm.nih.gov/geo) and comply with MIAME annotation standards. […]

Assay [4] deals with Colo320 cells. Description: Cell proliferation, [3H]thymidine uptake. The following applies: 5 μM, 24 h. The class given is cell-based. The procedure: as §1
Assay [5] has as its system MM1S cells. Description: Cell proliferation, [3H]thymidine uptake. The class given is cell-based. To be noted: 5 μM. The procedure: as §1
Assay [6] deals with colorectal primary tumors (CCPT). Description: Cell proliferation, [3H]thymidine uptake. It counts as cell-based, human. To be noted: primary CRC cells; 5 μM, 24 h. From the text: (§2) Bone marrow specimens were obtained from patients with MM in accordance with Dana-Farber Cancer Institute Review Board approval and informed consent performed in compliance with the Declaration of Helsinki. Primary CD138+ plasma cells were purified using magnetic beads as described (Sukhdeo, K. et al. Proc Natl Acad Sci USA 104, 7516-21 (2007)). CRC primary tumor samples were obtained from the Brigham and Women's Hospital in accordance with the policies of their Institutional Review Board. To generate sufficient CRC primary tumor cells for experimentation, the primary tumors were first expanded subcutaneously in NOD/SCID mice (Jackson Laboratory). After the tumors reached 2 cm in diameter, mice were sacrificed according to institutional guidelines and subcutaneous tumor xenografts were minced with a scalpel and digested by incubation with collagenase IV (Worthington Biomedical Corporation) and 0.01% DNase I (Sigma-Aldrich) at 37° C. for 30 min, followed by additional mechanical disaggregation using a Stomacher device (Seward Laboratory Systems Inc.). […]
(§3) Cell proliferation assays were performed as described (Sukhdeo, K. et al. Proc Natl Acad Sci USA 104, 7516-21 (2007)). Cell viability was measured using the CellTiter-Glo assay (Promega) according to the manufacturer's instructions. Apoptosis was evaluated by activated caspase-3 and PARP western blotting. […]

Assay [7] relates to multiple myeloma primary tumors (MMPT). Description: Cell proliferation, [3H]thymidine uptake. It counts as cell-based, human. The following applies: primary MM cells; 5 μM.
Text: as §2, §3

The test system of assay [8] is Wnt target genes in MM1S cells. Put plainly: qRT-PCR of Wnt/β-catenin target genes. The class given is cell-based. The following applies: MM1S (FIG. 19A), 10 μM. The procedure:
To measure the effects of vehicle, SAH-BCL9B, and SAH-BCL9MUT on the expression of Wnt/β-catenin target genes, including VEGF, in Colo320 (FIG. 18) and MM1S (FIG. 19) cell lines, quantitative PCR (qRT-PCR) analysis was performed. RNA was extracted with TRIzol Reagent (Invitrogen) according to the manufacturer's protocol. Total RNA (2 μg) was reverse transcribed (SuperScript VILO cDNA synthesis kit, Invitrogen) and qPCR was performed using an Applied Biosynthesis 7500 Real-time PCR system. PCR primers were designed as below: […]
Analysis of target genes was conducted in quadruplicate using POWER SYBR Green Master Mix (Applied Biosystems) as previously described (M. Mani et al., Cancer Res 69, 7577 (2009)). Transcripts levels were normalized to β-actin expression. These experiments were repeated three times.

The test system of assay [9] is INA-6 multiple myeloma cells. Description: Cell proliferation, thymidine incorporation. The class given is cell-based. The following applies: 5 μM, 24 h, vs vehicle and SAH-BCL9B(R359E). The procedure: as §1

Consider `CCCC[C@H](NC(=O)[C@H](CCCNC(=N)N)NC(=O)[C@H](CCC(N)=O)NC(=O)[C@@H](NC(=O)C1(C)CCCC=CCCCC(C)(NC(=O)[C@H](CC(C)C)NC(=O)[C@H](CO)NC(=O)[C@H](CCCNC(=N)N)NC(=O)[C@H](CCC(=O)O)NC(=O)[C@H](CCCNC(=N)N)NC(=O)[C@H](Cc2c[nH]cn2)NC(=O)[C@H](CCC(=O)O)NC(=O)[C@H](CC(C)C)NC(=O)[C@H](CCC(N)=O)NC(=O)[C@H](CCC(=O)O)NC(=O)[C@H](CCC(N)=O)NC(=O)[C@H](CO)NC(=O)[C@H](CC(C)C)NC(C)=O)C(=O)N[C@@H]([C@@H](C)O)C(=O)N[C@@H](CC(C)C)C(=O)N[C@@H](CCCNC(=N)N)C(=O)N1)[C@@H](C)CC)C(=O)N[C@@H](CC(C)C)C(=O)N[C@@H](Cc1ccccc1)C(N)=O` (some centres unmarked) [SAH-BCL9B] (Ac-LSQEQLEHRERSL[ξαMeNle(6-ylidene)]TLR[ξαMeNle(6-ylidene)]IQR[Nle]LF-NH2; staple 14-18), for which the viability entry with Colo320 cells [1] and in the assay with MM1S cells [2] was “no effect” throughout. Also, the VEGF-A expression result in assay [3] (DLD1) is on record as “downregulated”. Besides, the Axin2 expression result in assay [3] (DLD1, 10 μM, 12 hours) is “among the most down-regulated genes”. For the same compound, the “GSEA correlation of down-regulated genes with dominant-negative TCF1 and TCF4” value in [3] (DLD1, 10 μM, 12 hours, adenoma and carcinoma signatures) was “strong and statistically significant correlation”. In addition, the proliferation entry (in the assay on Colo320 cells [4]; with MM1S cells [5]; in [6]; in [7]) was “reduced the proliferation” in each case. Besides, the “mRNA levels of VEGF, c-MYC, LGR5, LEF1, and AXIN2” value in assay [8] is given as “dose-responsively reduced”. Moreover, the “growth by thymidine incorporation” value in [9] is given as “significantly reduced growth”.
